Test results as given in patent publication US4886806A, “Flavone-3-carboxylic acids compounds and pharmaceutical compositions containing them” (Kali-Chemie Pharma GmbH, priority 1987, dated 1989).
Like-named read-outs stand apart in the source and are kept apart here.

Tests used:
[1] = test system: oxygen radical-forming activity of activated peritoneal exudate cells (PEC) of mice; experiment: Peak chemiluminescence (CL) test: inhibition of oxygen radical liberation from activated peritoneal exudate cells; format: cell-based; settings: 10^-4 Mol substance/l, added at peak of cell activity; for inhibition at 100 µM (stock): Mus musculus, read-out: Inhibition in vitro of the oxygen radical liberation, Chemiluminescence Test % inhibition, Pk. CL
Method: 1. To determine the inhibiting effect on the oxygen radical-forming activity of inflamed cells, the in vitro inhibition of the release of oxygen radicals from activated peritoneal exudate cells (=PEC) of mice was determined in the chemiluminescence (CL) test according to the method of Mueller-Peddinghaus (Int. J. Immunopharmac. 6, 455-466 (1984)). […] The intensity of the chemiluminescence is a measurement of the oxygen radical content in the suspension and thus the degree of activity of the inflamed cells. In this, three functionally different parameters are detected, the spontaneous CL, the induced CL and the peak CL. The spontaneous CL and the induced CL on the one hand and the peak CL on the other hand differ from each other because in the first two parameters the test substances are in contact with the cells for a 30 minute preincubation period before the inflammation irritant is added, whereas with the peak CL the cells are first stimulated, and the test substance is added at the peak of their activity. The measurement of the spontaneous CL thus detects the influence of the test substance on the relative rest activity of inflamed cells, the induced CL represents the effect of the test substances on the activatability of the cells and the inhibition of the peak CL indicates the effect of the test substances on the maximum activity of the inflamed cells. 1.1 Production of PEC suspension used in the test. In order to induce the PEC formation, female mice of 20-25 g body weight were each injected i.p. with 2 ml of a 3% solution of thioglycollate in sterile isotonic sodium chloride solution. Twenty four hours after the thioglycollate injection the cells, which predominantly consisted of polymorphonuclear leucocytes, were recovered by washing out of the abdominal cavity and washed twice. As cell culture medium there was added a commercially available solution under the designation RPMI 1640 (pH 7.2) (produced by Flow Laboratories, […], Germany), which contains 10% fetal calf serum (FCS, produced by Seromed GmbH, Munich, Germany) 18 μmol/l sodium bicarbonate and 2 μmol/l L-glutamine. The cell pellets of four animals each time were resuspended in cell culture medium, collected together and the suspension was made up to 2×10^6 cells per ml with cell culture medium. The cell suspensions were kept under ice cooling until their use the same day. 1.2 Production of the complement opsonized zymosan (=ZyC3 b) suspension used for activation. 200 mg zymosan (glycoprotein mixture isolated from the cell walls of brewer's yeast, Sacchomyces […], produced by Sigma Chemical Co., Munich, Germany) were suspended in 10 ml phosphate buffer solution according to Dulbecco (produced by Flow Laboratories, […], Germany), well stirred and heated for thirty minutes in a water bath to 100° C. After cooling, it was centrifuged for five minutes at 4° C. and at 600 ×g and the supernatant was discarded. The sediment was resuspended in 50 ml human serum and incubated for thirty minutes at 37° C. in a shaking water bath. Then it was centrifuged for five minutes at 600 ×g and 420 C., the supernatant decanted and the sediment washed with phosphate buffer solution. The working suspension of 8×10^-3 g ZyC3 b/ml was produced from the sediment by dilution with phosphate buffer solution (Mueller-Peddinghaus et al., Zbl. Vet. Med. B. 30, 559-575). 1.3 Chemiluminescence (CL) measurement (Peak-CL). The PEC suspension was divided into samples of 100 μl each, placed in test tubes, and these were incubated for ten minutes at a temperature of 3720 C. in a measurement device (Chemiluminescence analyzer, Laboratorium Prof. Berthold, Wildbad, Germany). Then in order to amplify the chemiluminescence, 100 μl lucigenin solution was added (final concentration 1.54×10^-4 mol/l) and incubated for 16 more minutes. The cells were then activated by the addition of 100 μl of the ZyC3 b suspension produced as described in section 1.2 plus 100 μl phosphate buffer solution. […]

[2] = test system: Lipoxygenase; experiment: LTB4 synthesis and inhibition test (lipoxygenase inhibition in vitro) in polymorphonuclear leucocytes; format: cell-based; settings: PMNL; for inhibition at 100 µM: Homo sapiens, read-out: Lipoxygenase inhib. in vitro, % inhibition of the LTB4 synthesis at 10^-4 Mol/l
Method: 2. In order to investigate the lipoxygenase-inhibiting properties, the inhibiting effect of the substances on the biosynthesis of leucotriene B4 (=LTB4) from arachidonic acid by activated inflamed cells was determined in vitro. Leucotriene B4, a dihydroxy fatty acid which plays an important role not only in the inflammation but also in allergic reactions was oxidatively formed, starting from arachidonic acid, by oxidation through the action of the enzyme lipoxygenase.
LTB4 Synthesis and Inhibition Test.
The combined extracts were evaporated under vacuum to dryness and the residue was taken up in 0.5 ml 30% aqueous methanol and was analyzed with the aid of high pressure liquid chromatography with phase reversal (=reversed phase-HPLC). The stationary phase (=separating medium) consisted of silica gel containing octadecyl groups chemically bound thereto (=RSIL C18 HP; produced by Autech, Darfield, Ill.). The solvent mixture is methanol:water:acetic acid (67:33:0.1; v/v/v), which had been adjusted to a pH value of 6.2 with NH3 /H2 O. The flow velocity was 1 ml/min. […] The LTB4 signals were compared with those of the control (cell incubation with solvent) and reported as percent inhibition of LTB4 synthesis compared with the controls.

[3] = 10^-4 Mol/l, Ca-ionophore A 23187, arachidonic acid

Cl.O=C(c1c(-c2ccccc2)oc2ccccc2c1=O)N1CCN(c2ccccn2)CC1 [Example 1c, 3-{[4-(2-Pyridyl)-piperazin-1-yl]-carbonyl}flavone hydrochloride]
inhibition at 100 µM (stock) [1]: 47%
inhibition at 100 µM [2, 3]: 52%

O.O=C(O)C(O)C(O)C(=O)O.O=C(c1c(-c2ccccc2)oc2ccccc2c1=O)N1CCN(Cc2ccccc2)CC1 [Example 2b, 3-[(4-benzyl-piperazin-1-yl)-carbonyl]flavone tartrate monohydrate]
inhibition at 100 µM (stock) [1]: 58%
inhibition at 100 µM [2]: 92%

CCN(CC)CCCOC(=O)c1c(-c2ccccc2)oc2ccccc2c1=O.Cl [Example 3b, 3-[3-(diethylamino)propoxycarbonyl]flavone hydrochloride]
inhibition at 100 µM (stock) [1]: 61%
inhibition at 100 µM [2, 3]: 8%

O=C(NCCCCN1CCN(c2ccccn2)CC1)c1c(-c2ccccc2)oc2ccccc2c1=O [Example 4e, 3-{4-[4-(2-pyridyl)-piperazin-1-yl]-butylaminocarbonyl}flavone]
inhibition at 100 µM (stock) [1]: 76%
inhibition at 100 µM [2, 3]: 10%

COc1cc(-c2oc3ccccc3c(=O)c2C(=O)N2CCN(c3ccccn3)CC2)cc(OC)c1OC [Example 7a, 3',4',5'-trimethoxy-3-{[4-(2-pyridyl)-piperazin-1-yl]-carbonyl}flavone]
Inhibition in vitro of the oxygen radical liberation, Chemiluminescence Test % inhibition, Pk. CL [1]: 68%
inhibition at 100 µM [2, 3]: 38%

COc1cc(-c2oc3ccccc3c(=O)c2C(=O)N2CCN(c3ccccn3)CC2)cc(OC)c1OC [Example 7b, 3',4',5'-trimethoxy-3-{[4-(2-pyridyl)-piperazin-1-yl]-carbonyl}flavone]
Inhibition in vitro of the oxygen radical liberation, Chemiluminescence Test % inhibition, Pk. CL [1]: 44%
Lipoxygenase inhib. in vitro, % inhibition of the LTB4 synthesis at 10^-4 Mol/l [2, 3]: 42%

O.O.O=C(O)C(O)C(O)C(=O)O.O=C(c1c(-c2cc(O)c(O)c(O)c2)oc2ccccc2c1=O)N1CCN(Cc2ccccc2)CC1 [Example 14e, 3',4',5'-trihydroxy-3-[(4-benzylpiperazin-1-yl)carbonyl] -flavone tartrate dihydrate]
inhibition at 100 µM (stock) [1]: 99%
inhibition at 100 µM [2]: 86%

CN1CCN(CCCCNC(=O)c2c(-c3ccccc3)oc3ccccc3c2=O)CC1 [Example 24]
inhibition at 100 µM (stock) [1]: 1%
inhibition at 100 µM [2, 3]: 46%

O=C(c1c(-c2cccc(O)c2)oc2ccccc2c1=O)N1CCN(Cc2ccccc2)CC1 [Example 30]
inhibition at 100 µM (stock) [1]: 85%
inhibition at 100 µM [2, 3]: 44%

COc1ccc(-c2oc3ccccc3c(=O)c2C(=O)N2CCN(c3ccccn3)CC2)cc1OC [Example 32b]
inhibition at 100 µM (stock) [1]: 56%
inhibition at 100 µM [2, 3]: 25%

COc1cc(OC)c2c(=O)c(C(=O)N3CCN(c4ccccn4)CC3)c(-c3ccccc3)oc2c1 [Example 34]
inhibition at 100 µM (stock) [1]: 25%
inhibition at 100 µM [2, 3]: 25%

CC(=O)Oc1cc(-c2oc3ccccc3c(=O)c2C(=O)N2CCN(c3ccccn3)CC2)cc(OC(C)=O)c1OC(C)=O [Example 39b]
inhibition at 100 µM (stock) [1]: 99%
inhibition at 100 µM [2, 3]: 93%

O=C(NCCc1ccccn1)c1c(-c2cc(O)c(O)c(O)c2)oc2ccccc2c1=O [Example 53]
inhibition at 100 µM (stock) [1]: 77%
inhibition at 100 µM [2, 3]: 77%

COc1cc(-c2oc3ccccc3c(=O)c2C(=O)NCCCCN2CCN(c3ncccn3)CC2)cc(OC)c1OC [Example 54]
inhibition at 100 µM (stock) [1]: 72%
inhibition at 100 µM [2, 3]: 44%
